The source of these data is PMC4382718 (Carbohydrate research, 2015).

The target of assay [1] is T1, dGMIIb (Drosophila melanogaster Co(II)-activated Golgi α-mannosidase IIb) (Drosophila melanogaster, UniProt Q9VF33).
T1 sequence (Q9VF33 31-1249): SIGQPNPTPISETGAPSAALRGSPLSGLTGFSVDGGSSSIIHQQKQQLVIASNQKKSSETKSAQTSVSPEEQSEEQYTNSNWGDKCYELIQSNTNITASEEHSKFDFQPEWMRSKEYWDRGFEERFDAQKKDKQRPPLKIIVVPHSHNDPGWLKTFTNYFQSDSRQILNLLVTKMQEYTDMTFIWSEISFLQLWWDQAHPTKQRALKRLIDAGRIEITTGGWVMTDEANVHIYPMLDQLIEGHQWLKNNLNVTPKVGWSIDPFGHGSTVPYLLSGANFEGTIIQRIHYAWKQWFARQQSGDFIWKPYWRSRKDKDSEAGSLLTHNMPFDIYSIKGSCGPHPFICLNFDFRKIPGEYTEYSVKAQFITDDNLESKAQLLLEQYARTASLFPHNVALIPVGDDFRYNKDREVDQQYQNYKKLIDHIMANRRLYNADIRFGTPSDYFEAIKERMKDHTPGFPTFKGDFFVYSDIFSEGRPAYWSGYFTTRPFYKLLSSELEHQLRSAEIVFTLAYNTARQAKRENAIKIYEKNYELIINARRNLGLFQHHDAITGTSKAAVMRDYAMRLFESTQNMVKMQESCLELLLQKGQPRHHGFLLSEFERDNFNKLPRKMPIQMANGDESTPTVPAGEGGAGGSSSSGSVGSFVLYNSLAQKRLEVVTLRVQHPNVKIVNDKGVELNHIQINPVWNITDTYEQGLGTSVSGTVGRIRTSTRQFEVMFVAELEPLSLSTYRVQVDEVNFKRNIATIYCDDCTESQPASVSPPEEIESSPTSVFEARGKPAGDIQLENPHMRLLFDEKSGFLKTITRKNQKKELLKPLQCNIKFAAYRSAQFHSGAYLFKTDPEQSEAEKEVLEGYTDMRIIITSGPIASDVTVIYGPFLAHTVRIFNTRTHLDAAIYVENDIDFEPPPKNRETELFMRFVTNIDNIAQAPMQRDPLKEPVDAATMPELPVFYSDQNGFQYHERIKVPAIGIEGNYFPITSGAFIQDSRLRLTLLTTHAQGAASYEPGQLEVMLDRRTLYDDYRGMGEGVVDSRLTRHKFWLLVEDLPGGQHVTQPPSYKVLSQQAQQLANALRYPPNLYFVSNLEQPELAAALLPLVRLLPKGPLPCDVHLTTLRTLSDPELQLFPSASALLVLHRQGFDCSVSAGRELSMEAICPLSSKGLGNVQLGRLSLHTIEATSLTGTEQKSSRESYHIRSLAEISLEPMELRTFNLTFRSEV
As to the kind of experiment: Class II α-mannosidase inhibition assay. Type of assay: biochemical.

The target of assay [2] is T2, dLManII (Drosophila melanogaster lysosomal α-mannosidase II) (Drosophila melanogaster, UniProt Q9VKV1).
T2 sequence (Q9VKV1 25-1080): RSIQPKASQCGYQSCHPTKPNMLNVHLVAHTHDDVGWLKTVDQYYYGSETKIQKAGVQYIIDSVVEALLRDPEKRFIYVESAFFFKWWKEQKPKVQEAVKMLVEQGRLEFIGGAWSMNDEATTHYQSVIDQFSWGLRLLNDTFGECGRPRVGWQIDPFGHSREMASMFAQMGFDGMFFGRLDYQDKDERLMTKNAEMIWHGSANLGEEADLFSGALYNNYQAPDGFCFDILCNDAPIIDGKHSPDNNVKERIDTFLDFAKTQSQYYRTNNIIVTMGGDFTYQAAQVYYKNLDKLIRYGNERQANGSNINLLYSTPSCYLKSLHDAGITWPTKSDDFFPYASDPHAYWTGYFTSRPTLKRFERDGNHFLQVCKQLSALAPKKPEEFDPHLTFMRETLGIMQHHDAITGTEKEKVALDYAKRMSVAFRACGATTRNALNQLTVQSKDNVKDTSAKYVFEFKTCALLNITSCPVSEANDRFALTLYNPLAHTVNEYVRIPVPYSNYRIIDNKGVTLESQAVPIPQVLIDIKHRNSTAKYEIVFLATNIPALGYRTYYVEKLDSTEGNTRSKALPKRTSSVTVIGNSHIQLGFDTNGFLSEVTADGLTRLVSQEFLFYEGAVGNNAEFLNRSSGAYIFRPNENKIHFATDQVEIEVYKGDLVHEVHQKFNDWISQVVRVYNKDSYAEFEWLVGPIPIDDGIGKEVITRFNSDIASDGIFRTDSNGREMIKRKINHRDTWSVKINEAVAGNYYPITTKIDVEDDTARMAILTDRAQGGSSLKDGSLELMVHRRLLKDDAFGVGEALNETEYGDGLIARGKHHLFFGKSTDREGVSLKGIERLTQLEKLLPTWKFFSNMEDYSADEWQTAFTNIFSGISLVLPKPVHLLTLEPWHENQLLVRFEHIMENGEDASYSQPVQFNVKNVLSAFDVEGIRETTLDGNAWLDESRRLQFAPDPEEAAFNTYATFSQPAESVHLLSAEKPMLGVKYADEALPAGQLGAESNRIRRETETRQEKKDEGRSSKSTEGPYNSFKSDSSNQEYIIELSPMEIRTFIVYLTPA
As to the kind of experiment: Class II α-mannosidase inhibition assay. Type of assay: biochemical.

For assay [3], the target named is T3, jack bean α-mannosidase (JBMan) (Canavalia ensiformis, UniProt C0HJB3).
T3 sequence (C0HJB3 1-981): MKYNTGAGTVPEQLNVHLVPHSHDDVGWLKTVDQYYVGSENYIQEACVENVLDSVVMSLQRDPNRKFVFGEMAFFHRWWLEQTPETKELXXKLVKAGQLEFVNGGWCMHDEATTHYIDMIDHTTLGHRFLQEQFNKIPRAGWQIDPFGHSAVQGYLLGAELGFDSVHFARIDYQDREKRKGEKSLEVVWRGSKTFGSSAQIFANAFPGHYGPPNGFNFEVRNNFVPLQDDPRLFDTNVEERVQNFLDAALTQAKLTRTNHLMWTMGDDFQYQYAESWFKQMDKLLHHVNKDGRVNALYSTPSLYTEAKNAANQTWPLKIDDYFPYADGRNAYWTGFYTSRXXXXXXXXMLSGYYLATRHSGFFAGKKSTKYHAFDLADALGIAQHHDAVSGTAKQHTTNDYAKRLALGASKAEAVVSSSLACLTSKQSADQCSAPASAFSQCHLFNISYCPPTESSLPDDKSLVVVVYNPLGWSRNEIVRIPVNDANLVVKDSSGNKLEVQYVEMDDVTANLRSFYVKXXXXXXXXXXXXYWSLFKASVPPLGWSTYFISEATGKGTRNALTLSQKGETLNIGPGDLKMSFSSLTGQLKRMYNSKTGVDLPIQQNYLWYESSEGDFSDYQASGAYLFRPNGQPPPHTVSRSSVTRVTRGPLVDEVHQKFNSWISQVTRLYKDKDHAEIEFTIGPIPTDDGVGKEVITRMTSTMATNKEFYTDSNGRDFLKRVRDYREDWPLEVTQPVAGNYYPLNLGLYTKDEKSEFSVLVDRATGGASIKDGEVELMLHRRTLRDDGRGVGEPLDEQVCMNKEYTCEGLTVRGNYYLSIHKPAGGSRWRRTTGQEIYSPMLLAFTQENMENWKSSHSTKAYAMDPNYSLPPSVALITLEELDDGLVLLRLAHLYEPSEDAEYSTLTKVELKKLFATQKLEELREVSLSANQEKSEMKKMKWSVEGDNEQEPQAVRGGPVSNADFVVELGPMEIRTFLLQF
The settings on record: read-out: IC50 JBMan, cited from earlier work.

The target in assay [4] is T3, jack bean α-mannosidase (JBMan). As to the kind of experiment: Jack bean α-mannosidase inhibition assay. Type of assay: biochemical.
Assay [5] addresses T1, dGMIIb (Drosophila melanogaster Co(II)-activated Golgi α-mannosidase IIb). The settings on record: cited from earlier work.
Assay [6] addresses T4, Aspergillus saitoi α1,2-mannosidase (AspMan) (Aspergillus phoenicis, UniProt Q12563).
T4 sequence (Q12563 22-513): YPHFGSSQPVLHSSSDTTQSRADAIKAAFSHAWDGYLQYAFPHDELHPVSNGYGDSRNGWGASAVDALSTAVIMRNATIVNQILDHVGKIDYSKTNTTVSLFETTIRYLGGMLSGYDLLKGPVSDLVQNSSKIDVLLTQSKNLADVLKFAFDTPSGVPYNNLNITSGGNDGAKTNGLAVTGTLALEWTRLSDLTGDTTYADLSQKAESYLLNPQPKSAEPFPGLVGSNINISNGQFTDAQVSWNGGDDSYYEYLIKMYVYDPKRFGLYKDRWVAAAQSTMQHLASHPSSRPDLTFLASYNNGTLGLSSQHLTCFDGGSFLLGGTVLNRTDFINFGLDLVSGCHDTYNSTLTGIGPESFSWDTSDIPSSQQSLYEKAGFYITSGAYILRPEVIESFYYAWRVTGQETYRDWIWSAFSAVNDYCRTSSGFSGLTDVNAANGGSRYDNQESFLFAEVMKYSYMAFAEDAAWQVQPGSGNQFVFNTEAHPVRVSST
Type of assay: biochemical.

The target in assay [7] is dGMII (Drosophila melanogaster α-mannosidase II). To be noted: read-out: Ki dGMII (printed in dGMIIb column); ref Shah et al.[41]; cited from earlier work.

Each structure is given as a SMILES string. Where two headings read alike, the source gives them in different places.

`CS[C@@H]1[C@@H](N)[C@@H](O)[C@@H](O)[C@H]1O` [Mannostatin A, reference compound]: the IC50 in assay [1] was 0.15 µM; in assay [2], 3 µM; in assay [3] (ref Ogawa et al.[44]) it was 0.24 µM.

Regarding `O=S(=O)(Cc1ccccc1)[C@H]1O[C@H](CO)[C@@H](O)[C@H](O)[C@@H]1O` [Compound 9, benzyl α-D-mannopyranosyl sulfone], the IC50 was 2000 µM in assay [4] (read-out: IC50 JBMan, pNP-Manp substrate, pH 4.5) and 2000 µM in assay [5] (read-out: IC50 dGMIIb, ref Poláková et al.[30]). Moreover, the “selectivity GMII vs LM” value in assay [5] (ref [30]) is recorded as “selective towards GMII”.

As for `OC[C@H]1O[C@H](n2cc(-c3ccccc3)nn2)[C@@H](O)[C@@H](O)[C@@H]1O` [Compound 6, 1-α-D-mannopyranosyl-4-phenyl-1,2,3-triazole], the IC50 worked out at 5000 µM in assay [1], 5000 µM in assay [2], 400 µM in assay [4] and 50 µM in assay [6]. In addition, in assay [6] (GH38 mannosidases vs GH47 AspMan), the “selectivity ratio [IC50(GH38)/IC50(GH47)]” value is given as 100.

Turning to `OC[C@H]1O[C@H](n2cc(CCc3ccccc3)nn2)[C@@H](O)[C@@H](O)[C@@H]1O` [Compound 8, 1-α-D-mannopyranosyl-4-(2-phenylethyl)-1,2,3-triazole], the IC50 was determined as 6000 µM in assay [1], 5000 µM in assay [2], 400 µM in assay [4] and 250 µM in assay [6].

On to `O=C1N[C@@H]2[C@@H](O)[C@@H](O)[C@H](O)[C@@H](CO)N2C1=O` [Kifunensine], for which the IC50 in assay [3] (ref Kayakiri et al.[42]) is 120 µM. Also, the Ki in assay [7] is 5200 µM.

In the case of `OC[C@H]1O[C@H](n2cc(Cc3ccccc3)nn2)[C@@H](O)[C@@H](O)[C@@H]1O` [Compound 7, 4-Benzyl-1-α-D-mannopyranosyl-1,2,3-triazole], the IC50 in assay [1] came to 5000 µM; in assay [2], 500 µM; in assay [4] it was 1100 µM; in assay [6], 100 µM.

In general, IC50 refers to the concentration that inhibits the measured activity by half. By Ki is commonly meant a dissociation constant, usually derived from enzyme kinetics or from competition with a known ligand.
